From patent US20080145313A1, “Compositions and Methods for the Treatment and Prevention of Neoplastic Disorders” (Genesis Research & Development Corporation Limited, priority 2006, published 2008)

test system: A549 cells; assay: Growth inhibition of siRNA-transfected A549 cells, SYBR Green I DNA content; format: cell-based, human; settings: 10 nM siRNA; DNA content 96 hours after transfection
In short: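 A549 cells reverse-transfected with 10 nM Stealth siRNAs via Lipofectamine RNAiMAX, seeded at 5×10^3 cells/cm^2 in RPMI 1640/10% FCS; non-specific siRNA control. DNA content read 96 h post-transfection by SYBR Green I fluorescence (ex 485/em 535 nm) after freeze-thaw and Triton X-100 lysis; mean of three wells.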

| Substance | Growth Inhibition in A549 cells |
| --- | --- |
| SEQ ID NO: 4809: siRNA targeting H6PD (G6PDH) (chain 1 TTTGCCAGACATCAGGATGAAAGGC; chain 2 UUUGCCAGACAUCAGGAUGAAAGGC; chemistry not given here; one strand in two spellings) | ++ (inhibits by at least 75%) |
| SEQ ID NO: 4858: siRNA targeting ACLY (chain 1 TTCTTGATCAGCTTTCTCGTGAGGG; chain 2 UUCUUGAUCAGCUUUCUCGUGAGGG; Both strands are one antisense strand in DNA/RNA notation, chemistry not given here, further chemistry not given here; one strand in two spellings) | − (no growth inhibition with any siRNA) |
| SEQ ID NO: 4823: siRNA targeting PRPS1 (chain 1 TCAAGATGGCATAAACTCTGGTGGC; chain 2 UCAAGAUGGCAUAAACUCUGGUGGC; chemistry not given here; one strand in two spellings) | + (inhibits by at least 50%) |
| SEQ ID NO: 4807: siRNA targeting ARNT (HIF-1β) (chain 1 TGCACCTGATCATAGAGTGTGCTGC; chain 2 UGCACCUGAUCAUAGAGUGUGCUGC; chemistry not given here; one strand in two spellings) | + (inhibits by at least 50%) |
| SEQ ID NO: 4850: siRNA targeting COX5A (chain 1 ATTTAAAGTTGGTCTAAGTTCCTGG; chain 2 AUUUAAAGUUGGUCUAAGUUCCUGG; chemistry not given here; one strand in two spellings) | − (no growth inhibition with any siRNA) |
| SEQ ID NO: 4814: siRNA targeting HK-II (chain 1 TTAACAATGATGCTGTCGTCACAGG; chain 2 UUAACAAUGAUGCUGUCGUCACAGG; chemistry not given here; one strand in two spellings) | − (no growth inhibition with any siRNA) |
| SEQ ID NO: 4808: siRNA targeting ARNT (HIF-1β) (chain 1 TCTCATGGAAGACTGCTGACCTTCC; chain 2 UCUCAUGGAAGACUGCUGACCUUCC; chemistry not given here; one strand in two spellings) | − (no growth inhibition with any siRNA) |
| SEQ ID NO: 5002: siRNA targeting DPYD (chain 1 GCCACTGAAGAGGGACCCATTAATA; chain 2 GCCACUGAAGAGGGACCCAUUAAUA; chemistry not given here; one strand in two spellings) | − (no growth inhibition with any siRNA) |
| SEQ ID NO: 4868: siRNA targeting UQCRC2 (chain 1 TTGCGGTCACACTTAATTTGCCACC; chain 2 UUGCGGUCACACUUAAUUUGCCACC; Both strands are one antisense strand in DNA/RNA notation, chemistry not given here, further chemistry not given here; one strand in two spellings) | + (inhibits by at least 50%) |
| SEQ ID NO: 4819: siRNA targeting PFKL (chain 1 TAGTAGTCATGGCACTTCTCGTTCC; chain 2 UAGUAGUCAUGGCACUUCUCGUUCC; chemistry not given here; one strand in two spellings) | − (no growth inhibition with any siRNA) |
| SEQ ID NO: 4987: siRNA targeting DCK (chain 1 CAAGACTGGCATGACTGGATGAATA; chain 2 CAAGACUGGCAUGACUGGAUGAAUA; Both strands are one antisense strand in DNA/RNA notation, chemistry not given here, further chemistry not given here; one strand in two spellings) | − (no growth inhibition with any siRNA) |
| SEQ ID NO: 4872: siRNA targeting RRM2B (chain 1 TTTGACAGCATCAACAATGATCTCC; chain 2 UUUGACAGCAUCAACAAUGAUCUCC; Both strands are one antisense strand in DNA/RNA notation, chemistry not given here, further chemistry not given here; one strand in two spellings) | − (no growth inhibition with any siRNA) |
| SEQ ID NO: 4857: siRNA targeting ACLY (chain 1 ATAGTTTGCCAGCTCGTTGACACCC; chain 2 AUAGUUUGCCAGCUCGUUGACACCC; Both strands are one antisense strand in DNA/RNA notation, chemistry not given here, further chemistry not given here; one strand in two spellings) | + (inhibits by at least 50%) |
| SEQ ID NO: 4836: siRNA targeting DHFR (chain 1 AATATCTGAATTCATTCCTGAGCGG; chain 2 AAUAUCUGAAUUCAUUCCUGAGCGG; chemistry not given here; one strand in two spellings) | + (inhibits by at least 50%) |
| SEQ ID NO: 4829: siRNA targeting CAD (chain 1 AACTGTGTCAATCTGTTTCACTGCT; chain 2 AACUGUGUCAAUCUGUUUCACUGCU; chemistry not given here; one strand in two spellings) | + (inhibits by at least 50%) |
| SEQ ID NO: 4989: siRNA targeting TK1 (chain 1 GCGTGGCTGTCATAGGCATCGACGA; chain 2 GCGUGGCUGUCAUAGGCAUCGACGA; chemistry not given here; one strand in two spellings) | − (no growth inhibition with any siRNA) |
| SEQ ID NO: 4822: siRNA targeting PRPS1 (chain 1 TCCACATTCAGCCTGTCTGCAATGG; chain 2 UCCACAUUCAGCCUGUCUGCAAUGG; chemistry not given here; one strand in two spellings) | − (no growth inhibition with any siRNA) |
| SEQ ID NO: 4824: siRNA targeting CPS1 (chain 1 ATATGATGCAGCCACCACATGCCTC; chain 2 AUAUGAUGCAGCCACCACAUGCCUC; chemistry not given here; one strand in two spellings) | ++ (inhibits by at least 75%) |
| SEQ ID NO: 4842: siRNA targeting NADSYN (chain 1 TAGCTGATCTGGTTCACGATGGTGC; chain 2 UAGCUGAUCUGGUUCACGAUGGUGC; chemistry not given here; one strand in two spellings) | + (inhibits by at least 50%) |
| SEQ ID NO: 4848: siRNA targeting COX5A (chain 1 ATAGCAGCGAACTGACTGGATAGCC; chain 2 AUAGCAGCGAACUGACUGGAUAGCC; chemistry not given here; one strand in two spellings) | ++ (inhibits by at least 75%) |
| SEQ ID NO: 4877: siRNA targeting CTPS (chain 1 AGCACCTGCATACAACCAGATCTGG; chain 2 AGCACCUGCAUACAACCAGAUCUGG; Both strands are one antisense strand in DNA/RNA notation, chemistry not given here, further chemistry not given here; one strand in two spellings) | + (inhibits by at least 50%) |
| SEQ ID NO: 4863: siRNA targeting SLC25A6 (ANT3) (chain 1 AAAGTACCTCCAGAACTGCGTGTGC; chain 2 AAAGUACCUCCAGAACUGCGUGUGC; Both strands are one antisense strand in DNA/RNA notation, chemistry not given here, further chemistry not given here; one strand in two spellings) | ++ (inhibits by at least 75%) |
| SEQ ID NO: 4996: siRNA targeting DGUOK (chain 1 CCTGCACTGCCCAAAGTCTTGGAAA; chain 2 CCUGCACUGCCCAAAGUCUUGGAAA; chemistry not given here; one strand in two spellings) | − (no growth inhibition with any siRNA) |
| SEQ ID NO: 4828: siRNA targeting CAD (chain 1 TGTCTGAGAAGCCAAGACACTTGGC; chain 2 UGUCUGAGAAGCCAAGACACUUGGC; chemistry not given here; one strand in two spellings) | − (no growth inhibition with any siRNA) |
| SEQ ID NO: 4817: siRNA targeting LDHA/5 (chain 1 TATACTCTCTGCCAAATCTGCTACA; chain 2 UAUACUCUCUGCCAAAUCUGCUACA; chemistry not given here; one strand in two spellings) | − (no growth inhibition with any siRNA) |

same assay, conditions: 10 nM siRNA; up to 120 hours post-transfection (FIG. 8)

| Substance | growth inhibition, A549 |
| --- | --- |
| SEQ ID NO: 4872: siRNA targeting RRM2B (chain 1 TTTGACAGCATCAACAATGATCTCC; chain 2 UUUGACAGCAUCAACAAUGAUCUCC; Both strands are one antisense strand in DNA/RNA notation, chemistry not given here, further chemistry not given here; one strand in two spellings) | No inhibition of growth |

same assay, conditions: A549 cells, 10 nM siRNA, DNA content 96 hours after transfection, transporter gene targets

| Substance | Growth Inhibition in A549 cells by 10 nM siRNA |
| --- | --- |
| SEQ ID NO: 4979: siRNA targeting ABCB1 (MDR1) (chain 1 TAATTATTCCTGTCCCAAGATTTGC; chain 2 UAAUUAUUCCUGUCCCAAGAUUUGC; chemistry not given here; one strand in two spellings) | − (no growth inhibition) |
| SEQ ID NO: 4980: siRNA targeting ABCB1 (MDR1) (chain 1 TTCACCAAATGTGACATTTCCTTCC; chain 2 UUCACCAAAUGUGACAUUUCCUUCC; chemistry not given here; one strand in two spellings) | − (no growth inhibition) |
| SEQ ID NO: 4943: siRNA targeting ATP2B3 (PMCA3) (chain 1 AAACGTCTCAATCACAAAGTAGAGG; chain 2 AAACGUCUCAAUCACAAAGUAGAGG; chemistry not given here; one strand in two spellings) | − (no growth inhibition) |
